Numbered stars: 1 amine (or outer) side, 2 acyl side, 3 side chain; on linkers, the order of the positions; unused ones are H or OH. Square brackets hold non-standard residues; d marks the D form. Side chains are listed from the residue outwards. Peptide text beside a SMILES is read from it. * marks the point of attachment. DOTA = O=C(O)CN1CCN(CC(=O)O)CCN(CC(=O)*)CCN(CC(=O)O)CC1; d(γGlu) = O=C(O)[C@@H](CCC(=O)[*:2])N[*:1]; 1Nal = N[C@@H](Cc1cccc2ccccc12)C(=O)O; NMeNle = CCCC[C@H](NC)C(=O)O; PEG4 = NCCOCCOCCOCCOCCC(=O)O
Parameters: species or system KM mice
Settings: mouse, in vivo, iv
Description: To evaluate the clearance rates of [^68Ga]Ga-DOTA-CCK2R-dimer and [^68Ga]Ga-DOTA-CCK-66 from the blood, a pharmacokinetic study was conducted in male KM mice (4-6 weeks old, 18-20 g, n = 5/group). Each mouse received 3.7 MBq of radiotracer via tail vein injection, corresponding to approximately 120 pmol of [^68Ga]Ga-DOTA-CCK2R-dimer or 210 pmol of [^68Ga]Ga-DOTA-CCK-66. Blood samples were collected from the tail vein into preweighed capillary tubes at 1, 3, 5, 10, 15, 30, 60, 90, 120, and 150 min post-injection. The radioactivity of the blood samples was measured using a γ-counter, and the percent of injected dose per gram of tissue (%ID/g) was calculated. Additionally, we assessed the in vivo stability of [^177Lu]Lu-DOTA-CCK2R-dimer. Mice were intravenously injected with 7.4 MBq (≈ 240 pmol) of [^177Lu]Lu-DOTA-CCK2R-dimer (dissolved in 200 μL of saline; n = 3/group). Urine samples were collected at 1, 4, and 24 hours post-injection, then diluted, filtered through a 0.22 μm membrane, and analyzed by radio-HPLC.
All animal studies were approved by the Ethics Committee of Fudan University […]
Shanghai Cancer Center (No. FUSCC-IACUC- S2023- 0003). […]
Pharmacokinetics in Normal Mice
F or the pharmacokinetics study, […] male KM mice (4 - 6 weeks old, weighing 18 - 20 g) were administered either [68Ga]Ga-D O TA -CCK2R-dimer or [68Ga]Ga-D O TA -CCK- 66 (3.7 MBq per mouse, n = 5/group) via tail vein injection.
Blood samples were collected from the tail vein using pre-weighed capillary tubes at […]
Radioactivity levels were measured using a gamma counter, with decay correction applied based on the injection time. The percentage of injected dose per gram of tissue (%ID/g) was calculated for each time point. […]

t1/2α	SMILES	half-life
	CCCC[C@@H](C(=O)N[C@@H](CC(=O)O)C(=O)N[C@@H](Cc1cccc2ccccc12)C(N)=O)N(C)C(=O)[C@H](Cc1c[nH]c2ccccc12)NC(=O)CCOCCOCCOCCOCCNC(=O)CC[C@@H](NC(=O)CC[C@H](NC(=O)CN1CCN(CC(=O)O)CCN(CC(=O)O)CCN(CC(=O)O)CC1)C(=O)N[C@H](CCC(=O)NCCOCCOCCOCCOCCC(=O)N[C@@H](Cc1c[nH]c2ccccc12)C(=O)N(C)[C@@H](CCCC)C(=O)N[C@@H](CC(=O)O)C(=O)N[C@@H](Cc1cccc2ccccc12)C(N)=O)C(=O)O)C(=O)O [[68Ga]Ga-DOTA-CCK2R-dimer, metal not drawn] ({DOTA}-E([d(γGlu)-PEG4-Trp-NMeNle-Asp-1Nal-NH2])[d(γGlu)][PEG4]W[NMeNle]D[1Nal]-NH2)	46.6 min
0.67 min	CCCC[C@@H](C(=O)N[C@@H](CC(=O)O)C(=O)N[C@@H](Cc1cccc2ccccc12)C(N)=O)N(C)C(=O)[C@H](Cc1c[nH]c2ccccc12)NC(=O)CCOCCOCCOCCOCCNC(=O)CC[C@@H](NC(=O)CN1CCN(CC(=O)O)CCN(CC(=O)O)CCN(CC(=O)O)CC1)C(=O)O [[68Ga]Ga-DOTA-CCK-66, metal not drawn, reference compound] ({DOTA-d(γGlu)-PEG4}-W[NMeNle]D[1Nal]-NH2)	11.8 min

Source: paper PMC12439480, “Dimeric CCK2R radiotheranostic tracers synergize with mTOR inhibition for enhanced tumor therapy” (Theranostics, 2025)
